Measurements taken from patent US8759382B2, “Propargyl-trifluoromethoxy-aminobenzothiazole derivatives, their preparation and use” (Teva Pharmaceutical Industries Ltd., priority 2010, dated 2014).

System: EAE induced in the CSJL/FI strain of mice
Assay: EAE model in CSJL/FI mice (MSCH/CFA-induced), clinical scoring
Assay type: in vivo
Method: EAE induced in the CSJL/FI strain of mice was selected to test the compounds mentioned above, as it is an established EAE model to test the efficacy of candidate molecules for MS treatment.
Disease was induced in all mice by the injection of the encephalitogenic emulsion (MSCH/CFA). Treatment was started from day 1 of the study or at disease onset and was administered every day, orally (BID), from onset of the study.
Healthy, nulliparous, non-pregnant female mice of the CSJL/FI strain obtained from Harlan Animal Breeding Center, Jerusalem, Israel were used in the study. The animals weighed about 17-20 g on arrival, and were approximately 9 weeks of age at initiation of the study. Overtly healthy animals were assigned to study groups arbitrarily before treatment commenced.
The mice were allocated to the following 8 groups of 10 mice each:
Treatments in all groups were administered orally.
The emulsion was made from equal parts of oil (4 mL CFA containing 1.0 mg/ml MT) and liquid portions ([…] MSCH/2.5 mL PBS) in two syringes connected to each other with a Leur lock. The concentration of MSCH in emulsion is 40 mg/mL.
The emulsion was transferred to an insulin syringe before injection. 0.05 ml was injected into the left foot-pad of each mouse.
104 μL Pertussis toxin (200 μg/ml) was added to 25.87 ml PBS to yield 800 ng/ml. The pertussis toxin was administered intravenously on the day of the encephalitogen injection and 48 hours later (160.0 ng/0.2 ml/mouse×2=320 ng/mouse).
Laquinimod was diluted in DDW water to yield 0.1 mg/ml. The solution was stored in an amber colored bottle at 2 to 8° C. The 0.1 mg/ml laquinimod was administered orally, once, daily from the initiation of the study until study termination (Day 23).
Compounds B and C were dissolved in 5% Dextrose to concentrations of 2.5, 5.0 and 10 mg/ml for dose levels of 25, 50 and 100 mg/kg respectively. Test samples were freshly prepared. The 2.5, 5.0 and 10 mg/ml concentrations of Compounds B and C were administered orally, twice daily (BID) from initiation of study until study termination (Day 23) to groups
Scoring of EAE clinical signs were initiated from the 10th day post-EAE induction and were continued daily. The clinical signs were recorded on observation cards according to a grading system described in the table below.
All mice having scores of 1 and above were considered sick.
Animals with a score of 4 for more than two days were given a score of 5 and sacrificed for humane reasons. For calculation purposes, the score (5) of animals that are sacrificed or died will be carried forward (LOCF).
The number of sick animals in each group was summed.
The incidence of disease was calculated as
The percent inhibition according to incidence was calculated as: […]
The number of dead or moribund animals in each group was summed.
The mortality of disease was calculated as
The percent inhibition according to mortality was calculated as
The mean delay in onset of disease expressed in days is calculated by subtracting the mean onset of disease in control group from test group.
The mean maximal score (MMS) of each group was calculated as
The percent inhibition according to MMS was calculated as
The daily scores of each mouse in the test group was summed and the individual mean daily score (IMS) was calculated as
The mean group score (GMS) was calculated as
The percent inhibition was calculated as
This example was performed in the same manner as example 3 with the following groups:
Compound A was prepared for administration by mixing in 0.5% methyl cellulose (0.5% MC) to concentrations of 2.5, 5.0 and 10 mg/ml for dose levels of 25, 50 and 100 mg/kg respectively. The samples were vortexed and sonicated until a clear solution was obtained.
The 2.5, 5.0 and 10 mg/ml concentrations of Compound A were administered orally, twice daily (BID) from initiation of study until study termination (Day 23) at a volume dose of 0.2 ml/mouse.
Compound B was prepared for administration as in Example 3. […]

[1] = Example 3, all dose levels (25, 50, 100 mg/kg BID oral) in 5% dextrose
[2] = Example 3, 1 mg/kg QD oral, Day 0 to 22, percent inhibition vs 5% dextrose negative control

C#CCN1CCN(c2nc3ccc(OC(F)(F)F)cc3s2)CC1 [Compound A, 2-(4-(prop-2-ynyl)piperazin-1-yl)-6-(trifluoromethoxy)benzo[d]thiazole]
protection from disease onset and severity (in words) (Example 4, 25, 50 and 100 mg/kg BID oral in 0.5% methyl cellulose, all doses tested): almost complete protection | efficacy compared with Compound B (Example 4, Compound A 25-100 mg/kg BID vs Compound B 15-25 mg/kg BID, oral): better than Compound B

C#CCNCc1nc2ccc(OC(F)(F)F)cc2s1 [Compound B, N-((6-(trifluoromethoxy)benzo[d]thiazol-2-yl)methyl)prop-2-yn-1-amine]
mortality (Example 3, 25 mg/kg BID oral): no mortality | activity based on GMS (EAE inhibition) (Example 3, 25 mg/kg BID oral in 5% dextrose, Day 0 to 22): 55.9% | activity based on GMS (EAE inhibition) (Example 3, 100 mg/kg BID oral in 5% dextrose, Day 0 to 22): 56.4% | activity in EAE (in words) [1]: some activity | activity in EAE (in words) (Example 4, 15 and 25 mg/kg BID oral, Day 0 to 22): moderate activity

C#CCN(C)Cc1nc2ccc(OC(F)(F)F)cc2s1 [Compound C, N-methyl-N-((6-(trifluoromethoxy)benzo[d]thiazol-2-yl)methyl)prop-2-yn-1-amine]
activity in EAE (in words) [1]: some activity

CCN(C(=O)c1c(O)c2c(Cl)cccc2n(C)c1=O)c1ccccc1 [laquinimod, reference compound]
activity according to GMS (group mean score) [2]: 96.7% | activity according to MMS (mean maximal score) [2]: 93.5% | activity according to incidence [2]: 80%
